The test system of assay [1] is cpHaloΔ. Set-up: method as in 2 sources, one per row (each row's own in cited_ref): ref 4 (Huppertz et al., Science 2024) ||| ref PhD thesis of Jonas Wilhelm. The note with it: CA-TMR labeling kinetics, TEVp-cleaved cpHalo∆; 500 nM cpHaloΔ protein, 100 nM CA-TMR (EC50 >1 μM); ref 4 (Huppertz et al., Science 2024); read-out: EC50 for the parental cpHalo∆; cited from earlier work.

Assay [2] addresses cpHaloΔ3-TMR. As to the kind of experiment: Bio-layer interferometry binding kinetics, biotin-Hpep with cpHaloΔ3-TMR. The note with it: BLI, 25 °C, 1:1 global fit; for Kd: biotin-Hpep 50 nM immobilised, cpHalo∆3-TMR 300–2 nM; for koff / kon: biotin-Hpep, cpHalo∆3-TMR. The procedure:
(§1) After incubation, Hpep1 was removed by IMAC purification on a gravity flow column and buffer was exchanged to activity buffer using Amicon Ultra-15 Centrifugal Filter Unit. The protein labeling was verified by SDS-PAGE, comparing Coomassie blue staining and in-gel fluorescence (Supplementary Fig. 19). Protein labeling and Hpep1 removal were further verified by HRMS as previously explained.
(§2) Bio-layer interferometry (BLI) analysis was performed in a 96-well plate using an Octet® R4 system (Sartorius) with an acquisition rate for standard kinetics of 5.0 Hz at 25 °C. […] The raw data was analyzed using Octet® Analysis Studio (Sartorius). For data correction, response curves were baseline-aligned by subtracting the average signal of the baseline step and Savitzky–Golay filtering was used to remove high-frequency noise from the data.

Assay [3] has as its target cpHaloΔ3-SiR. As to the kind of experiment: Bio-layer interferometry binding kinetics, biotin-Hpep with cpHaloΔ3-SiR. The note with it: BLI, 25 °C, 1:1 global fit; for Kd: biotin-Hpep 50 nM immobilised, cpHalo∆3-SiR 300–2 nM; for koff / kon: biotin-Hpep, cpHalo∆3-SiR. The method, then:
as §1, §2

Residues, ends and D or L forms follow the SMILES beside them. *: point of attachment. Biotin = O=C1N[C@H]2[C@H](CS[C@H]2CCCCC(=O)*)N1

Chain of cpHaloΔ (P0A3G2 4-141 L47V/S58T/D78G/Y87F/L88M/C128F): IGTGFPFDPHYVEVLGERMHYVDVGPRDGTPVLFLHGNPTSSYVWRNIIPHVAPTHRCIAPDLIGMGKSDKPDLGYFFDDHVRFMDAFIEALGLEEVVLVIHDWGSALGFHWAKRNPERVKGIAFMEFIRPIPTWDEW
Chain of cpHaloΔ (P0A3G2 156-290 E160K/A167V/A172T/K175M/C176G/K195N/A224E/N227D/E257K/T264A/H272N/Y273L): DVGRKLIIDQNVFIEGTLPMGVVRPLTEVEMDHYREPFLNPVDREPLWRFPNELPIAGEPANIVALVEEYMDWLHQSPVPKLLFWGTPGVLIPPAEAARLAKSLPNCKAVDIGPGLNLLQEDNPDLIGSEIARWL

As to “WRETFQLFRT [Hpep6, previously reported split-HaloTag peptide, […]]”, the EC50 in assay [1] was 2.39 µM.

For “WREEVRKAFKLFRQ [Hpep5, previously reported split-HaloTag peptide, […]]”, the concentration giving a half-maximal response (EC50) in assay [1] is 10.7 µM.

For `CSCC[C@H](NC(=O)[C@H](CCC(=O)O)NC(=O)[C@H](CCCNC(=N)N)NC(=O)[C@H](Cc1c[nH]c2ccccc12)NC(=O)[C@H](CO)NC(=O)[C@H](Cc1c[nH]c2ccccc12)NC(=O)CNC(=O)[C@H](CCCNC(=N)N)NC(=O)CCCC[C@@H]1SC[C@@H]2NC(=O)N[C@@H]21)C(=O)N[C@@H](Cc1ccccc1)C(=O)N[C@@H](CCCNC(=N)N)C(=O)N[C@@H](CC(C)C)C(=O)N[C@@H](Cc1ccccc1)C(=O)N[C@@H](CCCNC(=N)N)C(=O)N[C@H](C(=O)O)[C@@H](C)O` [biotin-Hpep9] (Biotin-RGWSWREMFRLFRT-OH), in assay [2], the affinity, expressed as Kd, was 0.00486 µM; the koff was 0.00104 s⁻¹; the kon was 214000 M⁻¹ s⁻¹. In assay [3], this compound gave a Kd of 0.0188 µM, a koff of 0.00149 s⁻¹ and a kon of 78900 M⁻¹ s⁻¹.

Regarding `CSCC[C@H](NC(=O)[C@H](CCC(=O)O)NC(=O)[C@H](CCCNC(=N)N)NC(=O)[C@H](Cc1c[nH]c2ccccc12)NC(=O)[C@H](CC(=O)O)NC(=O)[C@H](CCCNC(=N)N)NC(=O)[C@H](CCCCN)NC(=O)[C@H](CO)NC(=O)CCCC[C@@H]1SC[C@@H]2NC(=O)N[C@@H]21)C(=O)N[C@@H](Cc1ccccc1)C(=O)N[C@@H](CCCNC(=N)N)C(=O)N[C@@H](CC(C)C)C(=O)N[C@@H](Cc1ccccc1)C(=O)N[C@@H](CCCNC(=N)N)C(=O)N[C@H](C(=O)O)[C@@H](C)O` [biotin-Hpep11] (Biotin-SKRDWREMFRLFRT-OH), in assay [2], the Kd turned out to be 0.0106 µM, the koff was determined as 0.000687 s⁻¹ and the kon turned out to be 64900 M⁻¹ s⁻¹. For the same compound, in assay [3], the affinity, expressed as Kd, was 0.00427 µM; the off-rate constant (koff) was determined as 0.000214 s⁻¹; the kon came to 50000 M⁻¹ s⁻¹.

Take “WKEEVIKAFKLFRD [Hpep4, previously reported split-HaloTag peptide, […]]”: the EC50 in assay [1] was 21 µM.

Consider “SKRDAREMFQAFRT [Hpep3, previously reported split-HaloTag peptide, […]]”, for which the EC50 in assay [1] was 149 µM.

Take “ARETFQAFRT [Hpep1, previously reported split-HaloTag peptide, […]]”: the EC50 in assay [1] was 2980 µM.

On to “AREMFQAFRT [Hpep2, previously reported split-HaloTag peptide, […]]”, for which the EC50 in assay [1] is 1120 µM.

Values taken from PMC13022382, “A high-affinity split-HaloTag for live-cell protein labeling” (Nature Communications, 2026).
